Measured values reported in patent publication US8158791B2, “Aza-substituted spiro derivatives” (MSD K.K., priority 2005, dated 2012).

The molecules below were run against T1, human histamine-H3 receptor (Homo sapiens, UniProt Q9Y5N1) (assay: Histamine analogue-binding inhibition test). Settings: 50% inhibitory concentration to specific [3H]N-α-methylhistamine binding; membrane specimen of histamine-H3 receptor expression cells; 25° C., 2 hours, pH 7.4.
T1 construct: expressed in transfected cells; host or cells: HEK293 and CHO-K1 (membrane preparation)
From the text: A cDNA sequence coding for a human histamine-H3 receptor [see WO00/39164) was cloned with expression vectors pCR2.1, pEF1× (by Invitrogen) and pCI-neo (by Promega). The resulting expression vector was transfected into host cells, HEK293 and CHO-K1 (American Type Culture Collection), according to a cationic lipid process [see Proceedings of the National Academy of Sciences of the United States of America, Vol., 84, p. 7413 (1987)] to obtain histamine-H3 receptor expression cells.
A membrane specimen prepared from the cells having expressed a histamine-H3 receptor was incubated in an assay buffer (50 mM Tris buffer, pH 7.4) along with a test compound and 20,000 cpm [3H]N-α-methylhistamine (by NEN) therein, at 25° C. for 2 hours, and then filtered through a glass filter GF/C. After washed with 50 mM Tris buffer (pH 7.4), the radioactivity on the glass filter was determined. The non-specific binding was determined in the presence of 10 μM thioperamide (by SIGAM), and the 50% inhibitory concentration (IC50) of the test compound to the specific N-alpha-methylhistamine binding was calculated [see Molecular Pharmacology, Vol. 55, p. 1101 (1999)].

T1 sequence (Q9Y5N1 whole entry): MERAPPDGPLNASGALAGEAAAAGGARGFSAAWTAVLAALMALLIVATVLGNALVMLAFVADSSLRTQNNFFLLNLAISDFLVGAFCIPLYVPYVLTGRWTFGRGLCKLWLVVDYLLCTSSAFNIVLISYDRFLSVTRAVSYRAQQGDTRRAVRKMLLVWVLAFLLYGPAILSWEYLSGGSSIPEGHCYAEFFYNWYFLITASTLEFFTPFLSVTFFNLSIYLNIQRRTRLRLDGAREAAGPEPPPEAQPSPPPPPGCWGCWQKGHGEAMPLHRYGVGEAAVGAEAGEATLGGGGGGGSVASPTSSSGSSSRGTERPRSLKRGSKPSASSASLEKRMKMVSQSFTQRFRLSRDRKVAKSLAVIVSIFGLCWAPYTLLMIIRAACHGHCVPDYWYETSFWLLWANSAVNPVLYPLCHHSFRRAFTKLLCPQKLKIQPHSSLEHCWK

Row | SMILES | IC50 [nM]
1 | CN(CCN1CCCC1)C(=O)[C@H]1CC[C@@]2(CC1)OC(=O)c1nc(N3CCCCC3)ccc12 [Example 17, Trans-5′-(piperidin-1-yl)-3′-oxo-N-methyl-N-(2-pyrrolidin-1-ylethyl)-spiro[cyclohexane-1,1′-(3′H)-4′-azaisobenzofuran]-4-carboxamide] | 1.9
2 | COc1ccc2c(n1)C(=O)O[C@]21CC[C@H](C(=O)N(C)CCN2CCCC2)CC1 [Example 13, Trans-5′-methoxy-3′-oxo-N-methyl-N-(2-pyrrolidin-1-ylethyl)-spiro[cyclohexane-1,1′-(3′H)-4′-azaisobenzofuran]-4-carboxamide] | 0.92
3 | COc1nccc2c1C(=O)O[C@]21CC[C@H](C(=O)N(C)CCN2CCCCC2)CC1 [Example 34, Trans-4′-methoxy-3′-oxo-N-methyl-N-(2-piperidin-1-ylethyl)-spiro[cyclohexane-1,1′-(3′H)-5′-azaisobenzofuran]-4-carboxamide] | 0.32
4 | Cc1nccc2c1C(=O)O[C@]21CC[C@H](C(=O)N(C)CCN2CCCCC2)CC1 [Example 41, Trans-4′-methyl-3′-oxo-N-methyl-N-(2-piperidin-1-ylethyl)-spiro[cyclohexane-1,1′-(3′H)-5′-azaisobenzofuran]-4-carboxamide] | 0.51
5 | COc1ccc2c(n1)C(=O)O[C@]21CC[C@H](C(=O)N(C)CCN2CCCCC2)CC1 [Example 11, Trans-5′-methoxy-3′-oxo-N-methyl-N-(2-piperidin-1-ylethyl)-spiro[cyclohexane-1,1′-(3′H)-4′-azaisobenzofuran]-4-carboxamide] | 0.92
6 | CN(CCN1CCCCC1)C(=O)[C@H]1CC[C@@]2(CC1)OC(=O)c1c(-c3cnn(C)c3)nccc12 [Example 45, Trans-4′-(1-methyl-1H-pyrazol-4-yl)-3′-oxo-N-methyl-N-(2-piperidin-1-ylethyl)-spiro[cyclohexane-1,1′-(3′H)-5′-azaisobenzofuran]-4-carboxamide] | 0.14

Further molecules by falling IC50, results first:

Row | IC50 [nM] | SMILES
7 | 0.72 | CN(CCN1CCCC1)C(=O)[C@H]1CC[C@@]2(CC1)OC(=O)c1ncccc12 [Example 3, Trans-3′-oxo-N-methyl-N-(2-pyrrolidin-1-ylethyl)-spiro[cyclohexane-1,1′-(3′H)-4′-azaisobenzofuran]-4-carboxamide]
8 | 0.42 | CN(CCN1CCCC1)C(=O)[C@H]1CC[C@@]2(CC1)OC(=O)c1nc(-c3ccccc3)ccc12 [Example 21, Trans-5′-phenyl-3′-oxo-N-methyl-N-(2-pyrrolidin-1-ylethyl)-spiro[cyclohexane-1,1′-(3′H)-4′-azaisobenzofuran]-4-carboxamide]
9 | 0.07 | CN(CCN1CCCCC1)C(=O)[C@H]1CC[C@@]2(CC1)OC(=O)c1nc(-c3cnccn3)ccc12 [Example 54, Trans-5′-pyrazinyl-3′-oxo-N-methyl-N-(2-piperidin-1-ylethyl)-spiro[cyclohexane-1,1′-(3′H)-4′-azisobenzofuran]-4-carboxamide]
